Measurements: patent publication US20250388565A1, “ESTROGEN RECEPTOR ALPHA DEGRADERS AND METHODS OF USE THEREOF” (Relay Therapeutics, Inc., priority 2022, published 2025)

Target: T1, ERα protein (HiBiT-tagged) in ESR1_HiBiT KI MCF7 cells (Homo sapiens, UniProt P03372)
T1 sequence (P03372 1-595): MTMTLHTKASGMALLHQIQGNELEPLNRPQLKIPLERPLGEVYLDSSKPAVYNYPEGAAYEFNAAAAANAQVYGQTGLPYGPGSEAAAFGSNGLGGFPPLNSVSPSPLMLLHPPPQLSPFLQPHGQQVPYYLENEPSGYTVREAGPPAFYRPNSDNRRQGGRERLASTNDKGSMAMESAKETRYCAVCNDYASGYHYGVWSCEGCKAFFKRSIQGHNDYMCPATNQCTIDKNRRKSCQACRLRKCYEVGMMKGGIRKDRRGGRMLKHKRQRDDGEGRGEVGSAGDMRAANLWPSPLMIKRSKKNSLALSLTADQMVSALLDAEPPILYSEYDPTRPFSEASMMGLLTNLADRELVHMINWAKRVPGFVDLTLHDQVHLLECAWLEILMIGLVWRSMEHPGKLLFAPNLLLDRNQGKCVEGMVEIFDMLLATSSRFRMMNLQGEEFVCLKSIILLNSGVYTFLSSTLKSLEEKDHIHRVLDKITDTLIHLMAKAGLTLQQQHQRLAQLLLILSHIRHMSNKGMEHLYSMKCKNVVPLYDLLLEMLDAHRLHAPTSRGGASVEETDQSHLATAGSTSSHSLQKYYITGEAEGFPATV
Assay: Nano Glo HiBiT Lytic Degradation Assay
Assay type: cell-based
Details: 6 hours with compound, 14-point dose response 1:3, bell-shape curve fit, half-maximal effect of first Hill model, read-out: MCF7 ESR1 HiBiT - (DC50)
In short: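 HiBiT-tagged endogenous ERα remaining in MCF7 knock-in cells was quantified by lytic luminescence after a 6 h treatment. DC50 values derive from a bell-shaped curve, taken at the first Hill component's half-maximal effect.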

## O=C1CC[C@H](N2Cc3cc(N4CCN(CC5CCN(c6ccc([C@H]7c8ccc(O)cc8CC[C@H]7C7CCCCCC7)cc6)CC5)CC4)ccc3C2=O)C(=O)N1 [Compound I-134, (3S)-3-[5-[4-[[1-[4-[(1S,2S)-2-cycloheptyl-6-hydroxy-tetralin-1-yl]phenyl]-4-piperidyl]methyl]piperazin-1-yl]-1-oxo-isoindolin-2-yl]piperidine-2,6-dione]
  DC50: ≥ 10000 nM

## COc1ccc2c(c1)CC[C@H](c1ccccc1)[C@@H]2c1ccc(N2CCC(CN3CCN(c4ccc5c(c4)CN([C@H]4CCC(=O)NC4=O)C5=O)CC3)CC2)cc1 [II-59]
  DC50: ≥ 10000 nM

## O=C1CC[C@H](N2Cc3cc(N4CCN(CC5CCN(c6ccc([C@@H]7c8ccc(O)cc8CO[C@@H]7c7ccc(C(F)(F)F)cc7)cc6)CC5)CC4)ccc3C2=O)C(=O)N1 (single isomer, unassigned) [Compound I-36]
  DC50: 80 nM

## O=C1CC[C@H](N2Cc3cc(N4CCN(CC5CCN(c6ccc([C@H]7c8ccc(O)cc8CC[C@]78CCc7ccccc78)cc6)CC5)CC4)ccc3C2=O)C(=O)N1 [Compound I-259, (S)-3-(5-(4-((1-(4-((1R,1′R)-6′-hydroxy-2,3,3′,4′-tetrahydro-1′H-spiro[indene-1,2′-naphthalen]-1′-yl)phenyl)piperidin-4-yl)methyl)piperazin-1-yl)-1-oxoisoindolin-2-yl)piperidine-2,6-dione]
  DC50: 98 nM

## O=C1CC[C@H](N2Cc3cc(N4CCN(CC5CCN(c6ccc([C@@H]7c8ccc(O)cc8CO[C@H]7C7CCCCC7)cc6)CC5)CC4)ccc3C2=O)C(=O)N1 [Compound I-249, (S)-3-(5-(4-((1-(4-((3S,4R)-3-cyclohexyl-7-hydroxyisochroman-4-yl)phenyl)piperidin-4-yl)methyl)piperazin-1-yl)-1-oxoisoindolin-2-yl)piperidine-2,6-dione]
  DC50: 0.61 nM

## C[C@@H]1OC2(CCCCC2)[C@@H](c2ccc(N3CCC(CN4CCN(c5ccc6c(c5)CN([C@H]5CCC(=O)NC5=O)C6=O)CC4)CC3)cc2)c2ccc(O)cc21 (single isomer, unassigned) [Compound I-270]
  DC50: ≥ 10000 nM

## O=C1CC[C@H](N2Cc3cc(N4CCN(CC5CCN(c6ccc([C@@H]7c8ccc(O)cc8CC[C@@H]7c7ccncc7)cc6)CC5)CC4)ccc3C2=O)C(=O)N1 [Compound I-132, (S)-3-(5-(4-((1-(4-((1R,2S)-6-hydroxy-2-(pyridin-4-yl)-1,2,3,4-tetrahydronaphthalen-1-yl)phenyl)piperidin-4-yl)methyl)piperazin-1-yl)-1-oxoisoindolin-2-yl)piperidine-2,6-dione]
  DC50: 0.0491 nM

## O=C1CC[C@H](N2Cc3cc(N4CCN(CC5CCN(c6ccc([C@@H]7c8ccc(O)cc8CC[C@@H]7c7ccc(F)cc7)cc6)CC5)CC4)ccc3C2=O)C(=O)N1 [II-94]
  DC50: 0.64 nM

## O=C1CC[C@H](N2Cc3cc(N4CCN(CC5CCN(c6ccc(C7c8ccc(O)cc8CCC7C7CCCCC7)cn6)CC5)CC4)ccc3C2=O)C(=O)N1 (stereo in doubt) [Compound I-155, (S)-3-(5-(4-((1-(5-((1R,2S)-2-cyclohexyl-6-hydroxy-1,2,3,4-tetrahydronaphthalen-1-yl)pyridin-2-yl)piperidin-4-yl)methyl)piperazin-1-yl)-1-oxoisoindolin-2-yl)piperidine-2,6-dione]
  DC50: 1 nM

## O=C1CC[C@H](N2Cc3cc(N4CC5(CCN(CC6CCN(c7ccc([C@@H]8c9ccc(O)cc9CC[C@@H]8c8ccccc8)cc7)CC6)CC5)C4)ccc3C2=O)C(=O)N1 (single isomer, unassigned) [II-95]
  DC50: 0.83 nM

## O=C1CC[C@H](N2Cc3cc(N4CCN(CC5CCN(c6ccc([C@@H]7c8ccc(O)cc8CO[C@]78CCCc7ccccc78)cc6)CC5)CC4)ccc3C2=O)C(=O)N1 (single isomer, unassigned) [Compound I-272]
  DC50: 4 nM

## Cc1cc([C@@H]2CCc3cc(O)ccc3[C@@H]2c2ccc(N3CCC(CN4CCN(c5ccc6c(c5)CN([C@H]5CCC(=O)NC5=O)C6=O)CC4)CC3)cc2)n(C)n1 (single isomer, unassigned) [Compound I-415]
  DC50: 0.02 nM

## O=C1CC[C@H](N2Cc3cc(N4CCN(CC5CCN(c6ccc([C@@H]7c8ccc(O)cc8CC[C@@H]7c7ccc8c(c7)CCC8)cc6)CC5)CC4)ccc3C2=O)C(=O)N1 (single isomer, unassigned) [Compound I-412]
  DC50: 332 nM

## Cc1ccc(F)cc1[C@H]1OCc2cc(O)ccc2[C@H]1c1ccc(N2CCC(CN3CCN(c4ccc5c(c4)CN([C@H]4CCC(=O)NC4=O)C5=O)CC3)CC2)cc1 (single isomer, unassigned) [Compound I-357]
  DC50: 0.51 nM
